# Source: US9227971B2, “Pyrazolo[1,5-a]pyrimidine compounds as mTOR inhibitors” (Merck Sharp & Dohme Corp., priority 2010, dated 2016)
# Like-named read-outs stand apart in the source and are kept apart here.
# Assays:
# [1] = system: phosphorylated AKT Ser473 (pAKT S473), mTORC2 activity, PC3 cells; experiment: mTOR target engagement assay, immunofluorescent cell-based, pAKT S473 readout (mTORC2 activity)
# Experimental: (§1) The target engagement of mTOR kinase inhibitors was evaluated using an immunofluorescent cell-based assay. In this assay, inhibition of mTORC1 activity was measured by the reduction in the level of phosphorylated 4E-BP1^[…] (p4E-BP1 Thr37/46), and inhibition of mTORC2 activity was measured by the reduction of phosphorylated AKT^Ser473 (pAKT S473).
# PC3 cells (prostate tumor cell-line that contains a mutation in the tumor suppressor PTEN, that promotes the phosphorylation and activation of AKT and 4E-BP1) were used in the immunofluorescence assay. […] PC3 cells were then treated with 40 μl of the serially diluted test compounds (in 5% fetal bovine serum, F12 medium containing 0.25% DMSO) for ninety minutes at 37° C. The test compound solution was removed, and the plates were washed gently two times with 25 μl phosphate buffered saline (PBS). […] 5% Goat serum in PBS/0.3% Triton was used to block non-specific binding (60 minutes).
# The primary antibodies targeting pAKT S473 and p4E-BP1 Thr37/46 were diluted into PBS/0.3% Triton and incubated with the cells overnight at 4° C. […] Plates were washed three times with PBS/0.1% Tween 20 before adding the secondary antibody at a 1:200 dilution.
# Finally, the plates were washed three times with PBS/0.1% Tween 20 and the fluorescent intensity was read using an Analyst HT from Molecular Devices.
# [2] = system: phosphorylated 4E-BP1 Thr37/46 (p4E-BP1 Thr37/46), mTORC1 activity, PC3 cells; experiment: mTOR target engagement assay, immunofluorescent cell-based, p4E-BP1 Thr37/46 readout (mTORC1 activity); settings: read-out: p4E-BP1 Thr37/46 IC50
# Experimental: as §1
# PC3 cells (prostate tumor cell-line that contains a mutation in the tumor suppressor PTEN, that promotes the phosphorylation and activation of AKT and 4E-BP1) were used in the immunofluorescence assay. PC3 cells were seeded on 384 well plates (black clear bottom, Matrix #4332) overnight. PC3 cells were then treated with 40 μl of the serially diluted test compounds (in 5% fetal bovine serum, F12 medium containing 0.25% DMSO) for ninety minutes at 37° C. The test compound solution was removed, and the plates were washed gently two times with 25 μl phosphate buffered saline (PBS). The cells were fixed by adding 25 μl of Prefer reagent (from Anatech LTD, Cat#414, a glyoxal fixative for fixing proteins within a cell) for sixty minutes followed by three washes with PBS. 5% Goat serum in PBS/0.3% Triton was used to block non-specific binding (60 minutes).
# The primary antibodies targeting pAKT S473 and p4E-BP1 Thr37/46 were diluted into PBS/0.3% Triton and incubated with the cells overnight at 4° C. The antibodies targeting pAKTS473 (Cat#4085, Cell signaling) and p4E-BP1 Thr37/46 (Cat#2855, Cell signaling) were used at a 1:100 dilution. Plates were washed three times with PBS/0.1% Tween 20 before adding the secondary antibody at a 1:200 dilution. (goat anti-rabbit containing a fluorescent label, Alexa Fluor 488, Cat#A11008, Invitrogen) in PBS/0.3% Triton for 60 minutes.
# Finally, the plates were washed three times with PBS/0.1% Tween 20 and the fluorescent intensity was read using an Analyst HT from Molecular Devices. The fluorescent intensity values from the serially diluted compound treatment group were analyzed using the Xlfit 4 program ([…]) (Formula 205: Y=Bottom+(Top-Bottom)/(1+(IC50/X)^Hillslope) to generate the IC50 value. Where Top is the maximum signal without Compound (+DMSO only) and Bottom represents maximum inhibition. Y is the fluorescence at some compound concentration. The control used to determine the fluorescent intensities for 100% pAKT S473 or 100% phosphorylated p4E-BP1 Thr37/46 were measured from untreated wells that contained only DMSO, instead of test compound.
# [3] = PC3 cells, compound treatment ninety minutes at 37° C.
# [4] = Homo sapiens, PC-3, PC3 cells, compound treatment ninety minutes at 37° C.
compound,measurement,setting,value
"1-((1R,3s,5S)-3-(6-acetyl-7-amino-3-(6-(cyclopropylamino)pyridin-3-yl)pyrazolo[1,5-a]pyrimidin-5-yl)-8-azabicyclo[3.2.1]octan-8-yl)-2-hydroxyethanone [Compound 8.50]",IC50,[1]; PC3 cells,100 to 1000 nM
same,IC50,[2]; PC3 cells,100 to 1000 nM
"1-((1R,3s,5S)-3-(6-acetyl-7-amino-3-(6-(fluoromethyl)pyridin-3-yl)pyrazolo[1,5-a]pyrimidin-5-yl)-8-azabicyclo[3.2.1]octan-8-yl)-2-hydroxyethanone [Compound 1.1.92]",IC50,[1]; [3],1 to 100 nM
same,IC50,[2]; [3],1 to 100 nM
"1-((1R,3s,5S)-3-(7-amino-3-(6-(4-methoxy-(D3)-phenyl)pyridin-3-yl)-6-(methylsulfonyl)pyrazolo[1,5-a]pyrimidin-5-yl)-8-azabicyclo[3.2.1]octan-8-yl)-2-hydroxyethanone [Compound 3.67]",IC50,"[1]; Table 3-1, PC3 cells",1 to 100 nM
same,IC50,"[2]; Table 3-1, PC3 cells",100 to 1000 nM
"CC(=O)c1c([C@@H]2C[C@H]3CC[C@@H](C2)N3C(=O)C2CCS(=O)(=O)N2)nc2c(-c3ccc(-c4ccccc4)nc3)cnn2c1N (mixture of isomers) [Compound 1.1.4, (EXO)-3-[6-ACETYL-7-AMINO-3-(6-PHENYL-3-PYRIDINYL)PYRAZOLO[1,5-a]PYRIMIDIN-5-YL]-8-[(1,1-DIOXIDO-3-ISOTHIAZOLIDINYL)CARBONYL]-8-AZABICYCLO[3.2.1]OCTANE (MIX. OF 2 DIASTEREOMERS)]",IC50,[1]; [4],100 to 1000 nM
same,IC50,[2]; [4],100 to 1000 nM
"CS(=O)(=O)c1c(C2CC3COCC(C2)N3C(=O)c2nc[nH]n2)nc2c(-c3ccc(-c4ccccc4)nc3)cnn2c1N (single isomer, unassigned) [Compound 8.30, (7-(7-amino-6-(methylsulfonyl)-3-(6-phenylpyridin-3-yl)pyrazolo[1,5-a]pyrimidin-5-yl)-3-oxa-9-azabicyclo[3.3.1]nonan-9-yl)(1H-1,2,4-triazol-3-yl)methanone]",IC50,[1]; PC3 cells,1 to 100 nM
same,IC50,[2]; PC3 cells,1 to 100 nM
"CS(=O)(=O)c1c(C2CC3COCC(C2)N3C(=O)c2nc[nH]n2)nc2c(-c3ccc(-c4ccccc4)nc3)cnn2c1N (single isomer, unassigned) [Compound 8.31, (7-(7-amino-6-(methylsulfonyl)-3-(6-phenylpyridin-3-yl)pyrazolo[1,5-a]pyrimidin-5-yl)-3-oxa-9-azabicyclo[3.3.1]nonan-9-yl)(1H-1,2,4-triazol-3-yl)methanone]",IC50,[1]; PC3 cells,100 to 1000 nM
same,IC50,[2]; PC3 cells,100 to 1000 nM
"CS(=O)(=O)c1c(C2CC3COCC(C2)N3C(=O)C2(O)CC2)nc2c(-c3ccc(-c4ccccc4)nc3)cnn2c1N (single isomer, unassigned) [Compound 8.32, (7-(7-amino-6-(methylsulfonyl)-3-(6-phenylpyridin-3-yl)pyrazolo[1,5-a]pyrimidin-5-yl)-3-oxa-9-azabicyclo[3.3.1]nonan-9-yl)(1-hydroxycyclopropyl)methanone]",IC50,"[1]; Homo sapiens, PC-3, PC3 cells",1 to 100 nM
same,IC50,"[2]; Homo sapiens, PC-3, PC3 cells",100 to 1000 nM
"COc1cc(-c2ccc(-c3cnn4c(N)c(C5CC5)c([C@@H]5C[C@H]6CC[C@@H](C5)N6C(=O)c5nnc[nH]5)nc34)cn2)ccc1F [Compound 4.11, ((1R,3a,5S)-3-(7-amino-6-cyclopropyl-3-(6-(4-fluoro-3-methoxyphenyl)pyridin-3-yl)pyrazolo[1,5-a]pyrimidin-5-yl)-8-azabicyclo[3.2.1]octan-8-yl)(4H-1,2,4-triazol-3-yl)methanone]",IC50,[2]; [4],> 10000 nM
"Nc1cc([C@@H]2C[C@H]3CC[C@@H](C2)N3C(=O)c2nnc[nH]2)nc2c(-c3ccc(C4(O)CCC4)nc3)cnn12 [Compound 7.44, ((1R,3s,5S)-3-(7-amino-3-(6-(1-hydroxycyclobutyl)pyridin-3-yl)pyrazolo[1,5-a]pyrimidin-5-yl)-8-azabicyclo[3.2.1]octan-8-yl)(4H-1,2,4-triazol-3-yl)methanone]",IC50,"[2]; Homo sapiens, PC-3, Table 7-8, PC3 cells",1000 to 10000 nM
"CC(=O)c1c([C@H]2CC3CC[C@H](C2)N3C(=O)c2nnc[nH]2)nc2c(-c3cnc4c(c3)CCC4O)cnn2c1N (stereo partly drawn) [Compound 7.60, 1-(5-((1R,3s,5S)-8-(4H-1,2,4-triazole-3-carbonyl)-8-azabicyclo[3.2.1]octan-3-yl)-7-amino-3-(7-hydroxy-6,7-dihydro-5H-cyclopenta[b]pyridin-3-yl)pyrazolo[1,5-a]pyrimidin-6-yl)ethanone]",IC50,"[1]; Homo sapiens, PC-3, PC3 cells",100 to 1000 nM
"CC(=O)c1c(N2CC3CCC(C2)N3C(=O)c2nnc[nH]2)nc2c(-c3ccc(-c4ccccc4)nc3)cnn2c1N [Compound 8.1, 1-(5-(8-(4H-1,2,4-triazole-3-carbonyl)-3,8-diazabicyclo[3.2.1]octan-3-yl)-7-amino-3-(6-phenylpyridin-3-yl)pyrazolo[1,5-a]pyrimidin-6-yl)ethanone]",IC50,"[1]; Homo sapiens, PC-3, PC3 cells",100 to 1000 nM
"CC(=O)c1c(N2CC3CCC(C2)N3C(=O)[C@@H](C)O)nc2c(-c3ccc(-c4ccccc4)nc3)cnn2c1N [Compound 8.2, (2R)-1-(3-(6-acetyl-7-amino-3-(6-phenylpyridin-3-yl)pyrazolo[1,5-a]pyrimidin-5-yl)-3,8-diazabicyclo[3.2.1]octan-8-yl)-2-hydroxypropan-1-one]",IC50,"[1]; Homo sapiens, PC-3, PC3 cells",100 to 1000 nM
"CC(=O)c1c(N2CC3CCC2CN3C(=O)c2nnc[nH]2)nc2c(-c3ccc(-c4ccccc4)nc3)cnn2c1N (stereo not shown) [Compound 8.3, 1-(5-(5-(4H-1,2,4-triazole-3-carbonyl)-2,5-diazabicyclo[2.2.2]octan-2-yl)-7-amino-3-(6-phenylpyridin-3-yl)pyrazolo[1,5-a]pyrimidin-6-yl)ethanone]",IC50,"[1]; Homo sapiens, PC-3, PC3 cells",100 to 1000 nM
"CC(=O)c1c(N2CC3CCC2CN3C(=O)[C@@H](C)O)nc2c(-c3ccc(-c4ccccc4)nc3)cnn2c1N (stereo partly drawn) [Compound 8.4, (2R)-1-(5-(6-acetyl-7-amino-3-(6-phenylpyridin-3-yl)pyrazolo[1,5-a]pyrimidin-5-yl)-2,5-diazabicyclo[2.2.2]octan-2-yl)-2-hydroxypropan-1-one]",IC50,"[1]; Homo sapiens, PC-3, PC3 cells",1000 to 10000 nM
"CCOC(=O)Nc1ccc(-c2cnn3c(N)c(C(C)=O)c([C@@H]4C[C@H]5CC[C@@H](C4)N5C(=O)CO)nc23)cn1 [Compound 8.77, ethyl 5-(6-acetyl-7-amino-5-((1R,3s,5S)-8-(2-hydroxyacetyl)-8-azabicyclo[3.2.1]octan-3-yl)pyrazolo[1,5-a]pyrimidin-3-yl)pyridin-2-ylcarbamate]",IC50,"[1]; Homo sapiens, PC-3, PC3 cells",100 to 1000 nM
"Nc1ncc(-c2cnn3c(N)cc([C@@H]4C[C@H]5CC[C@@H](C4)N5C(=O)c4nnc[nH]4)nc23)cn1 [Compound 8.88, ((1R,3s,5S)-3-(7-amino-3-(2-aminopyrimidin-5-yl)pyrazolo[1,5-a]pyrimidin-5-yl)-8-azabicyclo[3.2.1]octan-8-yl)(4H-1,2,4-triazol-3-yl)methanone]",IC50,"[1]; Homo sapiens, PC-3, PC3 cells",> 10000 nM
"CS(=O)(=O)c1c([C@@H]2C[C@H]3CC[C@@H](C2)N3CC(N)=O)nc2c(-c3ccc(-c4ccccc4)nc3)cnn2c1N [Compound 8.92, 2-((1R,3s,5S)-3-(7-amino-6-(methylsulfonyl)-3-(6-phenylpyridin-3-yl)pyrazolo[1,5-a]pyrimidin-5-yl)-8-azabicyclo[3.2.1]octan-8-yl)acetamide]",IC50,"[1]; Homo sapiens, PC-3, PC3 cells",1000 to 10000 nM
"CC(=O)c1c([C@@H]2C[C@H]3CC[C@@H](C2)N3C(=O)c2nnc[nH]2)nc2c(-c3cnc(C(N)=O)nc3)cnn2c1N [Compound 8.97, 5-(5-((1R,3s,5S)-8-(4H-1,2,4-triazole-3-carbonyl)-8-azabicyclo[3.2.1]octan-3-yl)-6-acetyl-7-aminopyrazolo[1,5-a]pyrimidin-3-yl)pyrimidine-2-carboxamide]",IC50,"[1]; Homo sapiens, PC-3, PC3 cells",1000 to 10000 nM
